In PubChem BioAssay (NCI):
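These data come from cells grown in 96-well plates and exposed to compound for 48 hours at five concentrations. At the GI50, growth is halved. Definition used: TGI = concentration required for complete inhibition of growth.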

What was measured:
Experiment in all cases: NCI tumour cell line growth inhibition, 48 h
[1] = tested on: U251 CNS
[2] = tested on: UO-31 renal
[3] = tested on: NCI-H23 lung
[4] = tested on: DU-145 prostate
[5] = tested on: NCI-H460 lung
[6] = tested on: RPMI-8226 leukemia
[7] = tested on: A498 renal
[8] = tested on: HCT-116 colon
[9] = tested on: SN12C renal
[10] = tested on: IGROV1 ovarian
[11] = tested on: LOX IMVI melanoma
[12] = tested on: UACC-62 melanoma
[13] = tested on: MDA-N
[14] = tested on: NCI-H522 lung

Compound | TGI [1] [µM] | TGI [2] [µM] | TGI [3] [µM] | TGI [4] [µM] | TGI [5] [µM] | TGI [6] [µM] | TGI [7] [µM] | TGI [8] [µM] | TGI [9] [µM] | TGI [10] [µM] | TGI [11] [µM] | TGI [12] [µM] | TGI [13] [µM] | TGI [14] [µM] | GI50 [8] [µM] | GI50 [9] [µM] | GI50 [12] [µM]
c1ccc(NC2(c3nnnn3C3CCCCC3)CCNCC2)cc1 | 31.5 | 27.7 | 52.4 | > 100 | 31.7 | 59.6 | 51 | 28.5 | 90.1 | > 100 | 30.7 | 38.5 | – | – | – | – | –
CSc1ccc(C=C2N=C(c3ccccc3)N(c3cc(C(=O)c4ccccc4)ccc3N3C(=O)/C(=C/c4ccc(SC)cc4)N=C3c3ccccc3)C2=O)cc1 | > 100 | > 100 | – | > 100 | > 100 | > 100 | > 100 | > 100 | > 100 | > 100 | > 100 | > 100 | > 100 | – | – | – | –
OCC1OC(NC(=S)NCSCCC(F)(F)C(F)(F)C(F)(F)C(F)(F)C(F)(F)C(F)(F)F)C(O)C(O)C1O (configuration not stated) | 46.6 | > 100 | > 100 | > 100 | > 100 | > 100 | 12.6 | > 100 | > 100 | > 100 | > 100 | > 100 | > 100 | – | – | – | –
CC(=O)NC1C(OCc2ccccc2)OC(CO)C(O)C1OC(C)C(=O)NC(C(=O)NC(CCC(=O)Nc1ccc2c(c1)CN1C(=O)c3ccccc3C1=N2)C(N)=O)C(C)C (configuration not stated) | > 100 | > 100 | > 100 | > 100 | > 100 | > 100 | > 100 | > 100 | > 100 | > 100 | > 100 | > 100 | > 100 | – | – | – | –
O=c1[nH]nc(Cc2ccc(Cl)cc2)n1Nc1ccccc1 | > 100 | > 100 | > 100 | 27.8 | > 100 | – | > 100 | > 100 | > 100 | > 100 | > 100 | > 100 | > 100 | – | – | – | –
c1ccc2c(c1)SCCCSCCCS2 | > 100 | – | > 100 | > 100 | > 100 | – | – | > 100 | > 100 | > 100 | > 100 | > 100 | > 100 | > 100 | – | – | –
CCOC(=O)/C(C#N)=N\Nc1ccc(-n2c(C)nc3ccc(Br)cc3c2=O)cc1 | > 100 | > 100 | > 100 | > 100 | > 100 | > 100 | > 100 | > 100 | > 100 | > 100 | > 100 | > 100 | > 100 | – | – | – | –
O=C(O)C1CCCCN1CCc1c[nH]c2ccccc12 (configuration not stated) | > 100 | – | > 100 | > 100 | > 100 | > 100 | – | > 100 | > 100 | > 100 | > 100 | > 100 | > 100 | > 100 | – | – | –
O=C1NCC2=C1CCC1c3ccccc3CCN21 (configuration not stated) | > 100 | > 100 | > 100 | – | > 100 | – | > 100 | > 100 | > 100 | > 100 | > 100 | > 100 | – | > 100 | – | – | –
O=C(CN1c2ccccc2Sc2ccccc21)n1cnc2ccccc21 | > 100 | > 100 | > 100 | > 100 | > 100 | > 100 | > 100 | > 100 | > 100 | > 100 | > 100 | > 100 | > 100 | – | – | – | –
CCC/C(Cl)=N/OC(=O)Nc1cccc(F)c1 | 32.6 | 23.3 | 38.2 | 31.6 | 39 | 8.08 | – | 18.6 | 15.2 | 27.5 | 5.42 | 32.6 | 23.1 | 1.05 | – | – | –
CSC(=S)Nc1cc(C)ccn1 | > 100 | > 100 | > 100 | > 100 | > 100 | > 100 | – | > 100 | > 100 | 58 | > 100 | > 100 | > 100 | > 100 | – | – | –
NC(=S)NS(=O)(=O)c1ccc(F)cc1 | > 100 | – | > 100 | > 100 | > 100 | > 100 | – | > 100 | > 100 | > 100 | > 100 | > 100 | > 100 | > 100 | – | – | –
CN(N=O)C(N)=NC(=O)c1ccccc1 | > 100 | > 100 | > 100 | – | 40.6 | > 100 | > 100 | > 100 | – | > 100 | > 100 | > 100 | > 100 | > 100 | – | – | –
COc1ccc(OC)c(CC(=O)c2ccc(O)c(C(=O)NCCc3ccc(F)cc3)c2)c1 | 13.7 | 23.4 | 14.2 | – | 34 | 22.9 | 47 | 19.9 | 19.4 | 18.1 | 27 | 21.6 | – | 11.2 | 4.05 | 4.26 | 4.01
N#Cc1c(-c2ccccc2)cc(Nc2ccc(F)cc2)n2c1nc1ccccc12 | 8.11 | 6.66 | > 27.4 | > 100 | > 100 | > 100 | 12 | 6.06 | 6.1 | > 100 | > 30.4 | 14.8 | – | 5.83 | – | – | –
COc1ccc(-n2c(-c3ccccc3)cc(-c3cccs3)c2-c2cccs2)cc1 | > 100 | > 100 | 95.7 | > 100 | > 100 | > 100 | > 100 | > 100 | > 100 | > 100 | > 100 | > 100 | – | > 100 | – | – | –
COc1ccc2[nH]c3c(c2c1)CCc1ccccc1-3 | > 100 | > 100 | > 100 | > 100 | > 100 | – | – | > 100 | > 100 | > 100 | > 100 | > 100 | > 100 | 79.7 | – | – | –

Compound | TGI [1] [µM] | TGI [2] [µM] | TGI [3] [µM] | TGI [4] [µM] | TGI [5] [µM] | TGI [6] [µM] | TGI [7] [µM] | TGI [8] [µM] | TGI [9] [µM] | TGI [10] [µM] | TGI [11] [µM] | TGI [12] [µM] | TGI [13] [µM] | TGI [14] [µM] | GI50 [8] [µM] | GI50 [9] [µM] | GI50 [12] [µM]
COc1cc(/C=C2\N=C(c3ccccc3)N(/N=C/c3cc4cc(C)ccc4nc3Cl)C2=O)ccc1O | > 100 | > 100 | – | > 100 | > 100 | 80.8 | 55.3 | 51.8 | 77.1 | > 100 | > 100 | > 100 | 32 | – | – | – | –
Cc1ccc(NC(=O)c2cc(S(=O)(=O)N3CCNNC3=O)c(S)cc2Cl)cc1 | > 100 | > 100 | – | > 100 | > 100 | > 100 | – | > 100 | > 100 | > 100 | > 100 | > 100 | > 100 | > 100 | – | – | –
CC(=O)NC1C(OCc2ccccc2)OC(CO)C(O)C1OCC(=O)NC(C)C(=O)NC(CCC(=O)Nc1ccc2c(c1)CN1C(=O)c3ccccc3C1=N2)C(N)=O (configuration not stated) | > 100 | > 100 | > 100 | > 100 | > 100 | > 100 | > 100 | > 100 | > 100 | > 100 | > 100 | > 100 | > 100 | – | – | – | –
Cc1c(/C=N\NC(=S)N(C)CCN(C)C(=S)N/N=C\c2c(C)n(C)n(-c3ccccc3)c2=O)c(=O)n(-c2ccccc2)n1C | > 100 | > 100 | > 100 | > 100 | > 100 | – | > 100 | > 100 | – | – | – | > 100 | – | > 100 | – | – | –
COC(=O)/C=C(\S/C(=C(/c1ccccc1)n1cc(C(=O)OC)c(C(=O)OC)n1)c1ccccc1)C(=O)OC | 66.1 | 5.25 | 38 | 29.1 | > 100 | 26.9 | > 100 | 37.1 | 40.9 | 31.9 | 21.4 | 94 | 37.9 | – | – | – | –
CN(C)c1ccc(C=Nc2ccc(-c3nc4ccccc4o3)cc2)cc1 | > 100 | > 100 | > 100 | > 100 | 98.7 | – | > 100 | > 100 | > 100 | > 100 | > 100 | > 100 | – | > 100 | – | – | –
c1ncc(C23C4C5C6C4C2C6C53)[nH]1 (configuration not stated) | > 100 | > 100 | > 100 | > 100 | > 100 | > 100 | > 100 | > 100 | > 100 | > 100 | > 100 | > 100 | > 100 | – | – | – | –
CCOC(=O)C(NC(=O)Nc1ccccc1F)(OC)C(F)(F)F (configuration not stated) | > 100 | > 100 | > 100 | – | – | > 100 | > 100 | > 100 | > 100 | > 100 | > 100 | – | > 100 | – | – | – | –
COC(=O)C(NC(=O)C12CCC(C)(C(=O)O1)C2(C)C)c1cc(C(C)(C)C)c(O)c(C(C)(C)C)c1 (configuration not stated) | > 100 | > 100 | > 100 | > 100 | – | > 100 | > 100 | > 100 | – | > 100 | > 100 | > 100 | – | > 100 | – | – | –
CCOP(=O)(OCC)OC1CC(n2cnc3c(N(CC)CC)ncnc32)OC1CO[Si](C)(C)C(C)(C)C (configuration not stated) | 28.7 | 35.4 | 37.2 | 28.8 | 32 | > 100 | – | 30.6 | 37.8 | 32.3 | 33.4 | 28.2 | 32 | 27.6 | – | – | –
c1ccc2c(-c3ccnc(-c4c[nH]c5ccccc45)n3)c[nH]c2c1 | 14.2 | > 100 | – | 44.5 | > 100 | 4.61 | 5.33 | 15.4 | 19.7 | 14.7 | 10.1 | – | 7.33 | – | – | – | –
Cc1oc2nc(N(C)C)n3c(C)nnc3c2c1C | > 100 | > 100 | > 100 | > 100 | – | > 100 | > 100 | > 100 | > 100 | > 100 | > 100 | > 100 | – | > 100 | – | – | –
CCCNc1c(Cl)cc(Cl)c2[nH]c3ccccc3c(=O)c12 | > 100 | > 100 | > 100 | – | – | > 100 | > 100 | > 100 | > 100 | > 100 | > 100 | > 100 | > 100 | > 100 | – | – | –
CCCN=C1S/C(=C/c2ccc(OC)c(OC)c2)C(=O)N1c1ccccc1 | 38.7 | 98.6 | > 100 | – | > 100 | > 100 | 58.2 | > 100 | > 100 | > 100 | > 100 | > 100 | > 100 | > 100 | – | – | –
N#CCCN(CCC#N)c1ccc(/C=C2\N=C(c3ccccc3)N(NC(=O)c3ccncc3)C2=O)cc1 | > 100 | > 100 | – | > 100 | > 100 | > 100 | > 100 | > 100 | > 100 | > 100 | > 100 | > 100 | > 100 | – | – | – | –
CC1(c2nc3ccccc3[nH]2)CCC(CO)C(C)(C)O1 (configuration not stated) | > 100 | > 100 | > 100 | > 100 | – | > 100 | – | > 100 | > 100 | > 100 | > 100 | > 100 | > 100 | > 100 | – | – | –
COc1cccc2c(=O)c3c(O)c4cc(N(C)C)ccc4c(OC(C)=O)c3oc12 | 30.2 | 36.4 | 38.4 | 37.5 | 50.2 | 52.6 | 60.8 | 26.8 | 25.5 | – | 24.3 | 28 | 27.8 | – | – | – | –
